According to US12195372B2 (priority 2018, dated 2025):
Where two headings read alike, the source gives them in different places.

Settings: room temperature (20-35° C.), atmospheric pressure

Question: Which ClO4 equilibrium conc. (matrix: deionized water) does the source give for benzalkonium-perchlorate [BNZ-ClO4] here?
Answer: Its ClO4 equilibrium conc. is 0.20 mM.

Question: And the ClO4 equilibrium conc. (matrix: ethanol)?
Answer: The ClO4 equilibrium conc. was 231 mM.

Question: What about the ClO4 equilibrium conc. (matrix: salt water) of the same substance?
Answer: Its ClO4 equilibrium conc. is 0.81 mM.
